What was measured:
[1] = tested on: Gabrb3^ECKO telencephalon; assay: Prenatal NAD+ treatment (E12-E17), histology/IHC of E18 telencephalon; type: in vivo, mouse
Source text: (§1) Animals: Timed pregnant CD1 mice were purchased from Charles River laboratories, MA. Colonies of GAD65-GFP mice were maintained in our institutional animal facility. Tie2-cre mice and Gabrb3 floxed (Gabrb3^fl/fl) mice were obtained from Jackson Labs. The Tie2-cre transgene is known for uniform expression of cre-recombinase in endothelial cells during embryogenesis and adulthood. To selectively delete Gabrb3 in endothelial cells, Tie2-cre transgenic mice (males) were crossed to Gabrb3^fl/fl mice (females) to generate Tie2-cre; Gabrb3^fl/+ mice (males). These were further crossed with Gabrb3^fl/fl mice (females) to obtain the Gabrb3 conditional knock-outs (Tie2-cre; Gabrb3^fl/fl mice). The day of plug discovery was designated embryonic day 0 (E0). Animal experiments were in full compliance with the NIH Guide for Care and Use of Laboratory Animals and were approved by the HMRI and McLean Institutional Animal Care Committees.
Histology, immunohistochemistry, and microscopic analysis: Paraffin immunohistochemistry (IHC) was performed on embryonic brains only while frozen section IHC was used on both embryonic and adult brains. Briefly, for paraffin IHC-E18 brains were fixed in zinc fixative (BD Biosciences PharMingen) for 24 h and processed for paraffin histology. Histological stainings with hematoxylin (Vector Laboratories) and eosin (Sigma) were performed on 8 μm coronal sections. Lectin histochemistry (with biotinylated isolectin B4, 1:50, Sigma) as well as IHC was performed on 20 μm sections. Primary antibodies used for IHC were as follows: anti-PHH3 (1:200, Millipore) and anti-NKX2.1, (1:50; Sigma) followed by secondary detection with AlexaFluor conjugates (Invitrogen). DAPI (Vector Laboratories) was used to label nuclei. For frozen section IHC, E18 and P90 brains were removed, fixed in 4% PFA for 24 hours, cryo-protected in sucrose gradient, embedded into OCT medium for frozen blocks; sectioned at 40 μm on a cryostat and immunostained with anti-GABA (1:80, Sigma) and anti -PROX1 (1:80, Millipore) antibodies. Twenty sections from each brain were used for IHC and histology experiments. Uniform penetration of antibodies or stains throughout the section was ascertained and quality of the staining in each digital section was examined. […] All low and high-magnification images were obtained from an FSX100 microscope (Olympus).
Morphometry: A stereological point grid was superimposed on digital images of biotinylated isolectin-B4+ vessels using ImageJ software. The ratio between points falling on blood vessels and on brain tissue was calculated for each section, and average values were obtained.
This vascular deficit in the embryonic telencephalon persisted in the adult cerebral cortex with larger vessel diameters likely correlating with increased perfusion and indicative of functional changes in blood flow in Gabrb3^ECKO vessels. A summary of the embryonic and postnatal phenotype highlights (FIG. 3A) the importance of the endothelial GABA pathway for telencephalic angiogenesis, and for maintaining neuro-vascular interactions. Therefore, given its pro-angiogenic properties (FIGS. 2A-2J), NAD^+ treatment during the prenatal period was tested for its ability to improve angiogenesis in the Gabrb3^ECKO telencephalon. The periventricular ventral-dorsal angiogenesis gradient is established by E11, after which neuronal cells originating from ventricular zones navigate along radial and tangential courses, to adopt final laminar positions and integrate into specific brain circuits. Therefore, the approach was to target only the critical window of mouse prenatal brain development: E12 to E17. In the Gabrb3^ECKO telencephalon, the periventricular vessel gradient is formed normally at E11, but reductions in vascular density and abnormal vascular profiles are observed from E13 onward. […]

[2] = tested on: GAD65-GFP knock in mice; assay: E12-E17 NAD+ injection paradigm in GAD65-GFP knock in mice; type: in vivo, mouse; details: E18, vs NAD^+-untreated group
Source text: as §1
To test if the prenatal NAD^+ treatment was able to influence GABAergic neuronal migration, an in vitro neuronal migration assay was performed (FIG. 6M), after the in vivo NAD^+ treatment paradigm (E12-E17). […] This aspect was further explored by using the E12-E17 NAD^+ injection paradigm in GAD65-GFP knock in mice (FIGS. 6P-6T). Images of GFP^+ cells that had entered the dorsal telencephalon at E18 were collected and analyzed. […]

NC(=O)c1ccc[n+]([C@@H]2O[C@H](COP(=O)([O-])OP(=O)(O)OC[C@H]3O[C@@H](n4cnc5c(N)ncnc54)[C@H](O)[C@@H]3O)[C@@H](O)[C@H]2O)c1 [NAD^+]
periventricular vessel densities ([1]; 10 mg in 100 μl saline i.p. daily to pregnant dams E12-E17, E18, vs saline-treated Gabrb3^ECKO): significant improvement in periventricular vessel densities
NKX2.1 expression in MGE ([1]; E18): significantly enriched in the MGE
PROX1 expression ([1]; E18): significantly increased
number of PHH3^+ cells at VZ/SVZ surface of ventral telencephalon ([1]; E18): significantly increased the number of PHH3^+ cells
profile of GABAergic neurons (GABA immunoreactivity) ([1]; E18): restored
vascular patterns around lateral ventricle / ganglionic eminence ([1]; E18, 20 μm sections): uniform vascular patterns were restored
cell cluster in MGE (H&E) ([1]; NAD^+-treated Gabrb3^ECKO mice, E18): a cluster of cells were observed in the medial ganglionic eminence (MGE)
overall morphology of telencephalon (H&E) ([1]; treatment E12 to E17, E18): significantly improved the overall morphology
percentage of GFP^+ cells in dorsal telencephalon [2]: significant increase in the percentage of GFP^+ cells
